Active and inactive are the calls of the source. How the calls were made is not given here.

This assay has as its target methionyl-tRNA synthetase (Trypanosoma brucei brucei). The assay is described as follows: inhibition of trypanosomal methionyl-tRNA synthetase – biochemical, fluorescence polarization, dose response, round 1, orthogonal assay for T. brucei MetRS inhibitor project, late-stage follow-up (AID 743154). For orientation: Fluorescence polarisation rises when a labelled molecule tumbles more slowly, as on binding a larger partner.
On to `Cc1cccc2[nH]c(C3CCCN(C(=O)c4cccc5cccnc45)C3)nc12` (stereo unspecified), for which the IC50 is > 39.5 µM (inactive).
As to `Cc1cc2cc(C(=O)N3CCCC(c4nc5ccccc5[nH]4)C3)ccc2o1` (stereo unspecified), the IC50 is > 39.5 µM (inactive).
In the case of `Cc1cccc(NC(=O)C2CC(=O)n3c(nc4ccccc43)N2)c1` (stereo unspecified), the IC50 is > 39.5 µM (inactive).
On to `O=C(C(=O)N1CCOCC1)c1cn(CC(=O)N2CCCc3ccccc32)c2ccccc12`, for which the IC50 is > 13.2 µM (inactive).
For the molecule `O=C(CSc1nnc2c(n1)[nH]c1ccc(Br)cc12)NCc1ccccc1`, the IC50 was 0.666 µM.
In the case of `Cc1cccc2[nH]c(CCN(C)C(=O)c3cccc(C4CCNC4)c3)nc12` (stereo unspecified), the IC50 is > 119 µM (inactive).
The value for `Cn1c(CCNC(=O)c2ccc(Cl)cc2)nc2ccccc21` was > 39.5 µM (inactive).
On to `O=C(Cn1cc(C(=O)C(=O)N2CCOCC2)c2ccccc21)NCC1CCCO1` (stereo unspecified), for which the IC50 was > 119 µM (inactive).
Take `O=C(Cn1cc(C(=O)c2ccccc2)c2ccccc21)Nc1cccc(C(F)(F)F)c1`: the IC50 result was “inactive”.
Regarding `CCN(CC)C(=O)C(=O)c1cn(CC(=O)N(CC)c2ccccc2)c2ccccc12`, the IC50 was > 39.5 µM (inactive).
In the case of `CC(C)c1nc2ccc(C(=O)N(C)CCc3nc4ccc(F)cc4[nH]3)cc2o1` it was > 119 µM (inactive); in that of `O=C(CSC1CC(=O)N(c2cccc(Cl)c2)C1=O)Nc1ccc(Br)cc1` (stereo unspecified), “inactive”; in that of `Cc1ccc2[nH]c3nc(SCC(=O)Nc4ccc(C(F)(F)F)cc4)nnc3c2c1`, > 119 µM (inactive).
For the molecule `Cc1ccc(C(=O)NCCc2nc3ccccc3[nH]2)cc1[N+](=O)[O-]`, the IC50 is 3.55 µM.
On to `Cc1cccc(C(=O)NCCc2nc3ccccc3n2CCOc2ccccc2)c1`, for which the IC50 is > 39.5 µM (inactive).
In the case of `O=C(NCCc1nc2ccccc2[nH]1)c1ccc(Cl)cc1Cl` it was 1.35 µM; in that of `CC(=O)N(CCc1ccccc1)C1CC(=O)N(c2ccc(Br)cc2)C1=O` (stereo unspecified), > 39.5 µM (inactive); in that of `Cc1ccc(C(=O)NCCc2nc3ccccc3[nH]2)cc1C`, > 13.2 µM (inactive).
Turning to `COCCc1nc2ccc(C(=O)NCCc3nc4ccc(OC)cc4[nH]3)cc2o1`, the IC50 is > 39.5 µM (inactive).
Turning to `CC(=O)c1cn(CC(=O)Nc2cccc(C(F)(F)F)c2)c2ccccc12`, the IC50 is > 39.5 µM (inactive).
For the molecule `O=C(Cn1cc(C(=O)C(=O)N2CCOCC2)c2ccccc21)NCc1ccccc1`, the IC50 was > 119 µM (inactive).
Regarding `COc1ccc(CCN(C(=S)Nc2ccccc2)C2CC(=O)N(c3ccc(Cl)cc3)C2=O)cc1` (stereo unspecified), the IC50 was 0.676 µM.
For `CCN(CC)C(=O)C(=O)c1cn(CC(=O)Nc2cccc(OC)c2)c2ccccc12`, the IC50 is 3.5 µM.
In the case of `Cc1ccc(CNC(=O)CSc2nnc3c(n2)[nH]c2ccc(C)cc23)cc1` it was “inactive”.
In the case of `CCC(=O)c1cn(CC(=O)Nc2cccc(C(F)(F)F)c2)c2ccccc12` it was > 39.5 µM (inactive).
Take `COc1ccc(NC(=O)C2CC(=O)n3c(nc4ccccc43)N2)cc1` (stereo unspecified): the IC50 was > 119 µM (inactive).
`CNC(=S)N(CCc1ccccc1)C1CC(=O)N(c2ccc(Br)cc2)C1=O` (stereo unspecified): the half-inhibitory concentration (IC50) is 0.326 µM.
On to `CCN(CC)C(=O)C(=O)c1cn(CC(=O)N2CCCc3ccccc32)c2ccccc12`, for which the IC50 was > 119 µM (inactive).
On to `COc1ccccc1NC(=O)CSc1nnc2c(n1)[nH]c1ccc(C)cc12`, for which the IC50 entry is “inactive”.
`O=C(NCCc1nc2ccccc2[nH]1)c1ccc(Cl)cc1`: the IC50 was 5.37 µM.
In the case of `COc1ccc(NC(=O)CSc2nnc3c4cc(C)ccc4n(C)c3n2)cc1` it was > 119 µM (inactive); in that of `CCc1ccc2c(c1)c1nnc(SCC(=O)Nc3ccc4c(c3)OCO4)nc1n2C`, > 119 µM (inactive); in that of `CCN(CC)C(=O)C(=O)c1cn(CC(=O)Nc2ccccc2OC)c2ccccc12`, > 119 µM (inactive).
The value for `O=C(NCCc1nc2ccccc2[nH]1)c1c(F)cccc1F` was > 119 µM (inactive); that for `O=C(NCCc1nc2ccccc2[nH]1)c1ccc(Cl)c(Cl)c1` was 0.901 µM; that for `COc1ccc(CCN(C(=O)c2cccc(F)c2)C2CC(=O)N(c3ccc(Br)cc3)C2=O)cc1` (stereo unspecified) was > 119 µM (inactive).
On to `O=C(Cn1cc(C(=O)COc2ccccc2)c2ccccc21)Nc1cccc(C(F)(F)F)c1`, for which the IC50 is > 39.5 µM (inactive).
On to `O=C(Nc1ccc(F)c(Cl)c1)C1CC(=O)n2c(nc3ccccc32)N1` (stereo unspecified), for which the IC50 is 1.77 µM.
Turning to `COc1ccccc1NC(=O)Cn1cc(C(=O)C(=O)N2CCOCC2)c2ccccc21`, the IC50 is > 119 µM (inactive).
With `CC1Cc2ccccc2N1C(=O)Cn1cc(C(=O)C(=O)N2CCOCC2)c2ccccc21` (stereo unspecified), the IC50 was > 119 µM (inactive).
`CCc1ccc2[nH]c3nc(SCC(=O)NCc4cccc(OC)c4)nnc3c2c1`: the IC50 is > 39.5 µM (inactive).
With `O=C(Cn1cc(C(=O)c2ccco2)c2ccccc21)Nc1cccc(C(F)(F)F)c1`, the concentration for half-maximal inhibition (IC50) was 2.92 µM.
`O=C1CC(NCCc2ccccc2)C(=O)N1c1ccc(Br)cc1` (stereo unspecified): the IC50 was > 119 µM (inactive).
With `O=C(Cn1cc(C(=O)C2CC2)c2ccccc21)Nc1cccc(C(F)(F)F)c1`, the IC50 is > 39.5 µM (inactive).
As for `CCCCn1c(CCNC(=O)c2ccc(F)cc2)nc2ccccc21`, the IC50 is > 39.5 µM (inactive).
As for `CC(=O)N(CCc1ccccc1)C1CC(=O)N(c2ccc(Cl)cc2)C1=O` (stereo unspecified), the IC50 is > 39.5 µM (inactive).
On to `CCN(C(=O)Cn1cc(C(=O)C(=O)N2CCOCC2)c2ccccc21)c1ccccc1`, for which the IC50 is > 119 µM (inactive).
As for `COc1cccc(NC(=O)C2CC(=O)n3c(nc4ccccc43)N2)c1` (stereo unspecified), the IC50 is > 13.2 µM (inactive).
Turning to `CCN(CC)C(=O)C(=O)c1cn(CC(=O)Nc2cccc(C(F)(F)F)c2)c2ccccc12`, the IC50 was 0.167 µM.
In the case of `O=C(Cn1cc(C(=O)C(=O)N2CCCC2)c2ccccc21)Nc1ccccc1` it was > 119 µM (inactive); in that of `CCN(CCc1nc2ccc(C)cc2[nH]1)C(=O)c1ccc2ncccc2c1`, > 119 µM (inactive).

In general, IC50 refers to the concentration that inhibits the measured activity by half.

The record behind these values is PubChem BioAssay AID743154 (The Scripps Research Institute Molecular Screening Center, 2013).
